Laboratory results: article PMC6811774, “Potent, selective, and subunit‐dependent activation of TRPC5 channels by a xanthine derivative” (British Journal of Pharmacology, 2019)

How the values were obtained:
Type in all cases: cell-based
TRPC4:C1 channels = TRPC4:C1 channels (Homo sapiens, UniProt P48995+Q9UBN4); assay: Excised outside-out patch-clamp, HEK 293 cells transiently co-expressing hTRPC4 and hTRPC1; set-up: expressed in transfected cells; host or cells: HEK 293 (transient co-expression); conditions: 30 nM EA; at 3 to 100 nM AM237
TRPC4:C1 channels, sequence (P48995 whole entry, one chain of several): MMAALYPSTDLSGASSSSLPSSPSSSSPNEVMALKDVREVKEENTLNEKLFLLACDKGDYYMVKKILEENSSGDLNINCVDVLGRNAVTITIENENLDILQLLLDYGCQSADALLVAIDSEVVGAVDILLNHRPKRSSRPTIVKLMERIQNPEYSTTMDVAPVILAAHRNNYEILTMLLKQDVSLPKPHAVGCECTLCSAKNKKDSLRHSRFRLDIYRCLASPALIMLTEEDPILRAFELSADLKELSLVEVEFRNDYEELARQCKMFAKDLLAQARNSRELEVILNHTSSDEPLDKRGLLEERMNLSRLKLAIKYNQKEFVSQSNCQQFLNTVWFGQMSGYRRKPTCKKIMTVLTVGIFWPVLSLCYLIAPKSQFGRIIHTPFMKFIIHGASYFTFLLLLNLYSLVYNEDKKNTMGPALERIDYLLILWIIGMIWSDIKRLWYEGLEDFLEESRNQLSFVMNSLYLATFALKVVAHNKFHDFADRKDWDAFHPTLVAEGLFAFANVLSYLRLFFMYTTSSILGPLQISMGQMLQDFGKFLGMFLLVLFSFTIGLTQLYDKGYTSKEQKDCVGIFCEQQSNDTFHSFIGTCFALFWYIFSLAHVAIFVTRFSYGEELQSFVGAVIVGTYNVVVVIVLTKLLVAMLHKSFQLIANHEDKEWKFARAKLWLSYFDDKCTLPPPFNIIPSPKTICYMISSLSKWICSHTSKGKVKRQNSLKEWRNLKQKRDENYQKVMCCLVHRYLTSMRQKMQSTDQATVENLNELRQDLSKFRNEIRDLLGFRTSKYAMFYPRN
Description: (§1) For electrophysiology experiments, cells were plated at a low density of 20–30% onto round or square glass coverslips (13 mm diameter or 5 × 5 mm), and TRPC expression in HEK T‐REx was induced with 1 μg·ml^−1 tetracycline 24 hr before experimentation. Experiments were carried out at room temperature. Extracellular solution consisted of SBS. Patch‐clamp recordings were performed in whole‐cell mode (Figure S7) and in excised outside‐out patch mode under voltage clamp at room temperature using 2–4 MΩ patch pipettes fabricated from borosilicate glass capillaries with an outside diameter of 1 mm and an inside diameter of 0.58 mm (Harvard Apparatus). The voltage protocol comprised voltage ramps applied from −100 to +100 mV every 10 s from a holding potential of 0 mV. The patch‐clamp currents were recorded using Axopatch 200B or HEKA EPC‐800 amplifiers, digitized by a Digidata 1440 or PCI6229 (National Instruments Japan, Tokyo, Japan) and recorded to a computer using pCLAMP10 (Molecular Devices) or WinWCPV4.5 (developed by Dr John Dempster, University of Strathclyde, UK). The data were filtered at 1 kHz and analysed offline using Clampfit 10.2 software or WinWCPV4.5 and Origin 9.1 software (OriginLab, Northampton, MA). […]

TRPC4 channels = target: T1, TRPC4 channels (Homo sapiens, UniProt Q9UBN4); assay: Excised outside-out patch-clamp, HEK 293 cells transiently expressing hTRPC4; conditions: 30 nM EA; at 3 to 100 nM AM237
T1 construct: expressed in transfected cells; host or cells: HEK 293 (transient)
T1 sequence (Q9UBN4 1-977): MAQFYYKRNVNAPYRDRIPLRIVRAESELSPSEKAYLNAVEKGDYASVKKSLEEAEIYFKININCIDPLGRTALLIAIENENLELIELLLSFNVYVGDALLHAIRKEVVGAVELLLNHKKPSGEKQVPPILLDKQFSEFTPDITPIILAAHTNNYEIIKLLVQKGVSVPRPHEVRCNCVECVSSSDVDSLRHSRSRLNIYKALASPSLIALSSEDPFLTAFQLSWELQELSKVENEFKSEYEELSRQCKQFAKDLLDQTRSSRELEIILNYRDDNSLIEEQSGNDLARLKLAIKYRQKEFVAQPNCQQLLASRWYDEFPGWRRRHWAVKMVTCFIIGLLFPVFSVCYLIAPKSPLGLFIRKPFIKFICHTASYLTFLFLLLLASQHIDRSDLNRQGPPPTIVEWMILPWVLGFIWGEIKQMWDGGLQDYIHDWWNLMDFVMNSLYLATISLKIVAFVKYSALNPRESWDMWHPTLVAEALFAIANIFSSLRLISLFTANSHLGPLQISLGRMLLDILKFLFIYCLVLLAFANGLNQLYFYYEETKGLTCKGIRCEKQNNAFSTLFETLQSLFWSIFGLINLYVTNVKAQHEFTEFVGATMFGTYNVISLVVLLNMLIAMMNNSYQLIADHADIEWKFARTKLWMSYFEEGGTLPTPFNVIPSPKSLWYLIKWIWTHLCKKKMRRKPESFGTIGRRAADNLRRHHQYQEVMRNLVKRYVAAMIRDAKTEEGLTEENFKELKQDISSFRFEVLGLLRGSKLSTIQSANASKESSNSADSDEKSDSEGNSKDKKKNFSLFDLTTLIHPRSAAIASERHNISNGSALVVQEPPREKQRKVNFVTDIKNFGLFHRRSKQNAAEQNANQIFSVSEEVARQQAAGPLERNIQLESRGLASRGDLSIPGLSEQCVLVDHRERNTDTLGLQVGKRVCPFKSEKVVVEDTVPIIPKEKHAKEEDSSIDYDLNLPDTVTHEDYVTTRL
Description: as §1

[1] = target: T2, native TRPC1:C4 channels in A498 cells (Homo sapiens, UniProt P48995+Q9UBN4); assay: [Ca2+]i measurement in A498 renal carcinoma cells
T2 construct: A498 renal carcinoma cells, which endogenously express TRPC1:C4 channels; endogenous in cells; host or cells: A498
T2 sequence (P48995 whole entry, one chain of several): as the sequence (P48995 whole entry, one chain of several) above

Cn1c(=O)n(CCCO)c(=O)c2c1nc(Oc1ccc(Cl)c(OC(F)(F)F)c1)n2Cc1ccc(Cl)cc1 [AM237]
Inhibition of currents induced by EA (TRPC4:C1 channels): full inhibition | Inhibition of currents induced by EA (TRPC4 channels): full inhibition | Hill slope, inhibition of EA response [1]: -0.99 | Effect of pretreatment on basal [Ca2+]i ([1]; 0.01–10 nM AM237): no effect | Activation upon acute administration ([Ca2+]i) ([1]; 3-300 nM AM237): lack of activation | IC50 ([1]; AM237 pretreatment, then EA, read-out: IC50, inhibition of EA-mediated increase in [Ca2+]i): 0.849 nM
